The test system of test [1] is yeast map1Δ strain. Nature of the test: Yeast growth assay, map1Δ, expression under GAL1 promoter. Format: cell-based, yeast (S. cerevisiae). Here is the method: A haploid yeast map1Δ strain was transformed to leucine prototrophy with p425GAL1/MAP2 wild-type (WT), p425GAL1/map2 (H174A), or p425GAL1 vector alone (V). Each strain was grown to mid-logarithmic phase at 30° C. in minimal synthetic raffinose medium lacking leucine. Approximately 2×10^5 cells (ABS600) were then streaked onto minimal synthetic plates lacking leucine and supplemented with (A) glucose or (B) galactose. Plates were incubated for 4 days at 30° C.
A haploid yeast map1Δ strain was transformed to leucine prototrophy with p425GAL1/MAP2 wild-type (WT), p425GAL1/map2 ([…]), p425GAL1/map2 (Δ2-57/H174A) or p425GAL1 vector alone (V). Each strain was grown to mid-logarithmic phase at 30° C. in minimal synthetic raffinose medium lacking leucine. […]
For relative growth comparison, strains were grown to mid-logarithmic phase in 5 ml of 2% raffinose minimal media lacking leucine and ˜2×10^5 cells (ABS600) were streaked onto SD/Leu^− or SG/Leu^− plates, then incubated for 4 days at 30° C. For quantitative comparison, a growth curve was obtained (FIG. 4). […] The ABS600 of each 1 mL culture was measured and diluted to an ABS600 of 0.2 in 5 mL of SG/Leu^−. Each 5 mL culture was then grown aerobically at 30° C. and the ABS600 was measured in triplicate at one-hour intervals.

For test [2], the system named is peptide substrate (MGMM). Nature of the test: MetAP activity assay of immunopurified HA-tagged yeast MetAP2 with Met-Gly-Met-Met. Type of test: biochemical. The settings on record: immunopurified HA-tagged enzyme from map1Δ. How it is done: […]. Approximately 2 μg of purified wild-type MetAP2 (WT) and MetAP2 (H174A) was separated on a 10% SDS-PAGE gel and visualized with coomassie blue staining. Specific activity for the wild-type MetAP2 was 11±0.5 U/mg.
The purification of HA-tagged wild-type and mutant yeast MetAP2 from a yeast map1Δ strain (Klinkenberg et al., Arch. Biochem. Biophys. 347:193-200, 1997) was performed as previously described (Li and Chang, 1995) with slight modifications. A 1-liter yeast culture was grown aerobically at 30° C. in SG/Leu^− medium. Cells were collected at an OD600˜1-2 by centrifugation at 1500×g for 5 min. The pellet was rinsed with buffer XL (10 mM Hepes, pH 7.4; 1.5 mM MgCl2, 10% Glycerol [v/v]) plus 100 mM NaCl and fresh protease inhibitors (1 μg/ml aprotinin, 1 μg/ml leupeptin, 0.7 μg/ml pepstatin A, 1 mM phenylmethylsulfonyl fluoride). Cells were disrupted by vortexing (5 cycles of 1 min vortexing, 1 min on ice) with 0.5-mm acid-washed glass beads (Biospec Products, Inc.,). The lysate was then cleared at 10,000×g for 20 min at 4° C. Cleared lysate was applied to a Protein-Sepharose G column (Pharmacia) previously rinsed and pre-equilibrated with buffer XL and an anti-hemagglutinin epitope ([…]; SEQ ID NO:23) monoclonal antibody (BabCO). After loading, the column was washed with buffer XL until OD280<0.01. […]

Chain of peptide substrate (MGMM) (P38174 whole entry H174A): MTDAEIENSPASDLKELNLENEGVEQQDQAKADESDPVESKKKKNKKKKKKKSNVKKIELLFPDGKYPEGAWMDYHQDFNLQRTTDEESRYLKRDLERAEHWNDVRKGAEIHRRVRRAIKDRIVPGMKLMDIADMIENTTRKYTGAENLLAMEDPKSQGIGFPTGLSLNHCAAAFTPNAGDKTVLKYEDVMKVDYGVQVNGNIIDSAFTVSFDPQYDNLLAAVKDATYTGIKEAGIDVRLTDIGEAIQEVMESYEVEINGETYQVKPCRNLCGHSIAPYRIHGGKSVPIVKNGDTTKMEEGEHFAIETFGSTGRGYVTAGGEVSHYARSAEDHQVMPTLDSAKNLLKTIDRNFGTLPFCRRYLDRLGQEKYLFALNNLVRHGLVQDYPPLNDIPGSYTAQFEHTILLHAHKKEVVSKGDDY

On to “MetAP2 (H174A): variant yeast MetAP2 with His174 replaced by alanine, N-terminal HA tag; dominant negative (SEQ ID NO:8)”, for which the doubling time in test [1] (SG/Leu- medium, 30° C.) worked out at 9.3 ± 0.6 h. Further, in test [1] (galactose plates, 4 days at 30° C.), the “colony size / growth relative to map1Δ with vector alone” value is “smaller colonies”. Further, the “activity against a peptide substrate (MGMM) in vitro” value in test [2] is recorded as “no detectable activity”.
